The source of these data is patent US12583826B2, “[(1,5-diphenyl-1H-1,2,4-triazol-3-yl)oxy]acetic acid derivatives and salts thereof, crop protection compositions comprising them, methods for producing them and use thereof as safeners” (Bayer Aktiengesellschaft, priority 2019, dated 2026).

Test [1] concerns summer wheat (TRZAS; cv. Triso). The test is described as follows: Absolute action: reduction of damage by mesosulfuron-methyl on summer wheat, greenhouse post-emergence. In kind it is in vivo. The settings on record: for Absolute reduction in herbicide damage (damage without safener minus damage with safener): mesosulfuron-methyl 20 g/ha; for Herbicide damage with compound of the formula (I): then mesosulfuron-methyl 20 g/ha, visual 0-100% scale, 14-21 days after application. The procedure: (§1) 2.1 Absolute Action of Selected Compounds of the Invention Using the Example of Reduction of Damage by Mesosulfuron-Methyl on Summer Wheat (TRZAS) The seeds of the crop plants to be treated are laid out in sandy loam in wood fiber or plastic pots (diameter ˜4 cm), covered with soil and grow in a greenhouse under good conditions for germination and growth. The trial plants were treated at the early leaf stage (BBCH10—BBCH12). In the course of this, the inventive compounds of the general formula (I) formulated in the form of wettable powders (WP) were sprayed onto the above-ground parts of the plants as an aqueous suspension with a water application rate corresponding to 800 l/ha with addition of wetting agent (e.g. 0.2% agrotin) in the specified dose. This was followed by the application of the herbicide. For this purpose, mesosulfuron-methyl, formulated in the form of water-dispersible granules (WG), was sprayed onto the above-ground parts of the plants in the form of an aqueous dispersion with a water application rate corresponding to 800 l/ha with addition of wetting agent (e.g. 0.2% agrotin) in a dose of 20 g/ha. The dose of the herbicide was chosen here such that it causes visually apparent damage (min. 30%, max. 75%) compared to untreated crop plants at the evaluation time on a control group of crop plants without safener treatment that were included in the same trial. After application, the plants were cultivated under good growth conditions in a greenhouse. The damage was visually assessed 14-21 days after application. The damage effect was assessed visually on a scale of 0-100% by comparison with untreated control plants, and averaged over 2-3 repeats per treatment. Examples: • 0%=no noticeable effect compared to the untreated plant • 20%=the treated plant population has 20% damage compared to the untreated control population (e.g. growth height, leaf damage, etc.) • 100%=treated plants completely damaged/killed.

Test [2] deals with summer barley (HORVS; cv. Montoya). The test is described as follows: Absolute action: reduction of damage by mesosulfuron-methyl on summer barley, greenhouse post-emergence. In kind it is in vivo. Particulars: for Absolute reduction in damage (difference): mesosulfuron-methyl 20 g/ha, damage without minus with safener; for Herbicide damage with compound of the formula (I) (%): then mesosulfuron-methyl 20 g/ha, visual 0-100% scale, 14-21 days after application. The method, then:
as §1, with “2.2 Absolute Action” for “2.1 Absolute Action”, “on Summer Barley (HORVS) The seeds” for “on Summer Wheat (TRZAS) The seeds”, “treated are aid out in” for “treated are laid out in”, “soil and grown in a” for “soil and grow in a”, “leaf stage (BBCE10-BBCH12). In the” for “leaf stage (BBCH10—BBCH12). In the”, “control population (e.g.: growth height,” for “control population (e.g. growth height,”

Take `CCOC(=O)COc1nc(-c2ccc(Cl)cc2Cl)n(-c2ccc(F)cc2F)n1` [I.44-38]: in test [1] (safener 125 g a.i./ha), the “Absolute reduction in herbicide damage (damage without safener minus damage with safener)” value was 53% and the “Herbicide damage with compound of the formula (I)” value is 10%. In test [1] (safener 500 g a.i./ha), the “Absolute reduction in herbicide damage (damage without safener minus damage with safener)” value worked out at 60% and the “Herbicide damage with compound of the formula (I)” value is given as 3%. In test [2] (safener 125 g a.i./ha), the “Absolute reduction in damage (difference)” value is on record as 43% and the “Herbicide damage with compound of the formula (I) (%)” value (“Herbicide damage with compound … (%)” for short) was 17%. Besides, in test [2] (safener 500 g a.i./ha), the “Absolute reduction in damage (difference)” value was 50% and the “Herbicide damage with compound … (%)” value turned out to be 10%.

In the case of `CCOC(=O)COc1nc(-c2ccccc2)n(-c2ccc(F)cc2F)n1` [I.2-38], in test [1] (safener 1000 g/ha), the “Absolute reduction in herbicide damage (damage without safener minus damage with safener)” value is recorded as 20% and the “Herbicide damage with compound of the formula (I)” value is on record as 30%.

For `COC(=O)COc1nc(-c2ccccc2F)n(-c2ccc(Cl)cc2Cl)n1` [I.4-32], in test [1] (safener 125 g a.i./ha), the “Absolute reduction in herbicide damage (damage without safener minus damage with safener)” value was determined as 34% and the “Herbicide damage with compound of the formula (I)” value is listed as 23%. Further, in test [1] (safener 500 g a.i./ha), the “Absolute reduction in herbicide damage (damage without safener minus damage with safener)” value was determined as 47% and the “Herbicide damage with compound of the formula (I)” value stood at 10%. Also, in test [2] (safener 125 g a.i./ha), the “Absolute reduction in damage (difference)” value was 20% and the “Herbicide damage with compound … (%)” value was determined as 37%. In test [2] (safener 500 g a.i./ha), the “Absolute reduction in damage (difference)” value is reported as 44% and the “Herbicide damage with compound … (%)” value is given as 13%.

With `O=C(O)COc1nc(-c2ccc(F)cc2)n(-c2ccc(Cl)cc2)n1` [I.12-7], in test [1] (safener 250 g/ha), the “Absolute reduction in herbicide damage (damage without safener minus damage with safener)” value was 23% and the “Herbicide damage with compound of the formula (I)” value turned out to be 20%. In test [2] (safener 1000 g a.i./ha), the “Absolute reduction in damage (difference)” value worked out at 20% and the “Herbicide damage with compound … (%)” value is on record as 40%.

Take `O=C(O)COc1nc(-c2ccc(Cl)cc2F)n(-c2ccccc2F)n1` [I.48-2]: in test [1] (safener 125 g a.i./ha), the “Absolute reduction in herbicide damage (damage without safener minus damage with safener)” value came to 27% and the “Herbicide damage with compound of the formula (I)” value is 3%. Also, in test [2] (safener 125 g a.i./ha), the “Absolute reduction in damage (difference)” value came to 20% and the “Herbicide damage with compound … (%)” value is 27%. Further, in test [2] (safener 500 g a.i./ha), the “Absolute reduction in damage (difference)” value is listed as 27% and the “Herbicide damage with compound … (%)” value worked out at 20%.

As to `COC(=O)COc1nc(-c2ccc(Cl)cc2Cl)n(-c2ccc(Cl)cc2Cl)n1` [I.43-32], the “Absolute reduction in herbicide damage (damage without safener minus damage with safener)” value in test [1] (safener 125 g a.i./ha) is 33%; in test [1] (safener 500 g a.i./ha), 43%. The “Herbicide damage with compound of the formula (I)” value in test [1] (safener 125 g a.i./ha) was found to be 30%; in test [1] (safener 500 g a.i./ha), 20%. Also, the “Absolute reduction in damage (difference)” value in test [2] (safener 125 g a.i./ha) is reported as 26%; in test [2] (safener 500 g a.i./ha), 33%. For the same compound, the “Herbicide damage with compound … (%)” value is 37% in test [2] (safener 125 g a.i./ha) and 30% in test [2] (safener 500 g a.i./ha).

As for `CCOC(=O)COc1nc(-c2ccc(F)cc2F)n(-c2ccc(F)cc2F)n1` [I.41-38], the “Absolute reduction in damage (difference)” value in test [2] (safener 250 g a.i./ha) and in test [2] (safener 1000 g a.i./ha) was 23% throughout. Also, the “Herbicide damage with compound … (%)” value in test [2] (safener 250 g a.i./ha) and in test [2] (safener 1000 g a.i./ha) was 30% each time.

On to `CCOC(=O)COc1nc(-c2ccc(F)cc2F)n(-c2ccc(Cl)cc2)n1` [I.41-7], for which, in test [1] (safener 250 g/ha), the “Absolute reduction in herbicide damage (damage without safener minus damage with safener)” value came to 23% and the “Herbicide damage with compound of the formula (I)” value is reported as 20%. Also, in test [2] (safener 1000 g a.i./ha), the “Absolute reduction in damage (difference)” value came out at 40% and the “Herbicide damage with compound … (%)” value is recorded as 20%.

With `CCOC(=O)COc1nc(-c2ccc(Cl)cc2)n(-c2ccccc2)n1` [I.20-1], the “Absolute reduction in herbicide damage (damage without safener minus damage with safener)” value in test [1] (safener 250 g/ha) is given as 30%; in test [1] (safener 1000 g/ha), 36%. In addition, the entries for the “Herbicide damage with compound of the formula (I)” value in test [1] (safener 250 g/ha) and in test [1] (safener 1000 g/ha) were 13% and 7%, respectively.

For `COc1ccccc1-c1nc(OCC(=O)O)nn1-c1ccccc1F` [I.24-2], in test [1] (safener 500 g a.i./ha), the “Absolute reduction in herbicide damage (damage without safener minus damage with safener)” value came out at 20% and the “Herbicide damage with compound of the formula (I)” value is recorded as 30%.

With `COC(=O)COc1nc(-c2ccccc2F)n(-c2ccc(Cl)cc2F)n1` [I.4-49], in test [1] (safener 125 g a.i./ha), the “Absolute reduction in herbicide damage (damage without safener minus damage with safener)” value worked out at 40% and the “Herbicide damage with compound of the formula (I)” value is on record as 17%. Further, in test [2] (safener 125 g a.i./ha), the “Absolute reduction in damage (difference)” value was found to be 44% and the “Herbicide damage with compound … (%)” value is given as 13%. Further, in test [2] (safener 500 g a.i./ha), the “Absolute reduction in damage (difference)” value amounted to 47% and the “Herbicide damage with compound … (%)” value amounted to 10%.

As for `O=C(O)COc1nc(-c2ccc(Cl)cc2Cl)n(-c2ccc(Cl)cc2F)n1` [I.45-49, {[1-(4-Chloro-2-fluorophenyl)-5-(2,4-dichlorophenyl)-1H-1,2,4-triazol-3-yl]oxy}acetic acid], in test [1] (safener 125 g a.i./ha), the “Absolute reduction in herbicide damage (damage without safener minus damage with safener)” value is 20% and the “Herbicide damage with compound of the formula (I)” value is given as 43%. In test [1] (safener 500 g a.i./ha), the “Absolute reduction in herbicide damage (damage without safener minus damage with safener)” value came out at 23% and the “Herbicide damage with compound of the formula (I)” value turned out to be 40%. Moreover, in test [2] (safener 125 g a.i./ha), the “Absolute reduction in damage (difference)” value was found to be 20% and the “Herbicide damage with compound … (%)” value is reported as 40%. In test [2] (safener 500 g a.i./ha), the “Absolute reduction in damage (difference)” value amounted to 30% and the “Herbicide damage with compound … (%)” value was 30%.

`CCOC(=O)COc1nc(-c2ccccc2F)n(-c2ccc(Cl)cc2Cl)n1` [I.5-32]: in test [1] (safener 1000 g/ha), the “Absolute reduction in herbicide damage (damage without safener minus damage with safener)” value is 27% and the “Herbicide damage with compound of the formula (I)” value was 30%.

In the case of `CCOC(=O)COc1nc(-c2ccc(F)cc2)n(-c2ccc(F)cc2F)n1` [I.11-38], in test [1] (safener dose not given), the “Absolute reduction in herbicide damage (damage without safener minus damage with safener)” value turned out to be 20% and the “Herbicide damage with compound of the formula (I)” value is 30%.

Consider `O=C(O)COc1nc(-c2ccccc2)n(-c2ccc(F)cc2)n1` [I.3-4], for which, in test [1] (safener 250 g/ha), the “Absolute reduction in herbicide damage (damage without safener minus damage with safener)” value was 20% and the “Herbicide damage with compound of the formula (I)” value was determined as 30%. Also, in test [1] (safener 1000 g/ha), the “Absolute reduction in herbicide damage (damage without safener minus damage with safener)” value is 27% and the “Herbicide damage with compound of the formula (I)” value came out at 23%.

With `CCOC(=O)COc1nc(-c2ccccc2)n(-c2ccc(F)cc2)n1` [I.2-4], in test [1] (safener 1000 g/ha), the “Absolute reduction in herbicide damage (damage without safener minus damage with safener)” value came out at 20% and the “Herbicide damage with compound of the formula (I)” value came out at 30%.

Regarding `O=C(O)COc1nc(-c2ccc(Cl)cc2Cl)n(-c2ccccc2F)n1` [I.45-2], in test [1] (safener 500 g a.i./ha), the “Absolute reduction in herbicide damage (damage without safener minus damage with safener)” value turned out to be 20% and the “Herbicide damage with compound of the formula (I)” value worked out at 30%.

On to `O=C(O)COc1nc(-c2ccc(Cl)cc2Cl)n(-c2ccc(Cl)cc2Cl)n1` [I.45-32], for which, in test [1] (safener 125 g a.i./ha), the “Absolute reduction in herbicide damage (damage without safener minus damage with safener)” value is listed as 23% and the “Herbicide damage with compound of the formula (I)” value stood at 40%. In test [1] (safener 500 g a.i./ha), the “Absolute reduction in herbicide damage (damage without safener minus damage with safener)” value is 30% and the “Herbicide damage with compound of the formula (I)” value is on record as 33%.

Regarding `O=C(O)COc1nc(-c2ccccc2F)n(-c2ccc(Cl)cc2Cl)n1` [I.6-32], in test [2] (safener 250 g a.i./ha), the “Absolute reduction in damage (difference)” value turned out to be 20% and the “Herbicide damage with compound … (%)” value stood at 40%.
